Results as given in the supplement of paper PMC11208160.

Test: recombinant UMI read abundance after kanamycin selection (control-corrected) (log10(CPM+1)); higher = more efficient recombination; extreme values may be limits of the assay; sequences stand for … in AGTGCAGAGAAAATCGGCCAGTTTTCTCTGCCTGCAGTCCGCATGCCGTGGGACCCCTTGGGTTCTAACCTGTTGCCTAGATTTATGCAGCGGACTGCCTTTCTCCCAAAGTGATAAACCGG…AGGTTGGTTTCACT; site = the 11-nt donor
Procedure, shortened: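 In a pooled Escherichia coli screen for the IS621 bridge recombinase, donor and donor-binding-loop pairs were each placed with a 12-nt UMI on a plasmid bearing a promoterless kanamycin gene. This library was co-electroporated with a target plasmid encoding a fixed target and T7-inducible recombinase, and cells were plated either on IPTG (0.07 mM) plus kanamycin or without selection, in two replicates each. Recombinant UMIs were PCR-amplified across the donor–target junction and sequenced, and counts were converted to CPM, averaged over replicates, scaled by control-derived factors and reported as log10(CPM+1).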
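Note: IS621 bridge recombinase in Escherichia coli cells against a fixed T5 target plasmid.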

Sequence	recombinant UMI read abundance (log10)
CACCGTACATGGACCGGTTTTCCCGGTAATCCGTATTTGCT (site CACCGTACTAG)	2.18
CACCGTACATGGACCGGTTTTCCCGGTAATCCGTATTTGCT (site CCCCGTACTAG)	0.363
CACCGTACATGGACCGGTTTTCCCGGTAATCCGTATTTGCT (site CGCCGTACTAG)	0.614
CACCGTACATGGACCGGTTTTCCCGGTAATCCGTATTTGCT (site CTCCGTACTAG)	0.912
CACCTGGCATGGACCGGTTTTCCCGGTAATCCGTATTTGGA (site CACATGGCTTC)	0.0162
CACCTGGCATGGACCGGTTTTCCCGGTAATCCGTATTTGGA (site CACCTGGCTTC)	0.595
CACCTGGCATGGACCGGTTTTCCCGGTAATCCGTATTTGGA (site CACGTGGCTTC)	0.0355
CACCTGGCATGGACCGGTTTTCCCGGTAATCCGTATTTGGA (site CACTTGGCTTC)	0.0384
CACGCCTCATGGACCGGTTTTCCCGGTAATCCGTATTTGAA (site CACGCCTCTTT)	2.67
CACGCCTCATGGACCGGTTTTCCCGGTAATCCGTATTTGGC (site CACGCCTCTGC)	2.52
CACGGCCCATGGACCGGTTTTCCCGGTAATCCGTATTTGTC (site CACGGCCCTAA)	0.214
CACGGCCCATGGACCGGTTTTCCCGGTAATCCGTATTTGTC (site CACGGCCCTCA)	0.166
CACGGCCCATGGACCGGTTTTCCCGGTAATCCGTATTTGTC (site CACGGCCCTGA)	1.59
CACGGCCCATGGACCGGTTTTCCCGGTAATCCGTATTTGTC (site CACGGCCCTTA)	0.469
CACGGCTCATGGACCGGTTTTCCCGGTAATCCGTATTTGCC (site CACGGCTCTGG)	3.3
CACTACACATGGACCGGTTTTCCCGGTAATCCGTATTTGCT (site CACTACACTAG)	2.44
CACTACACATGGACCGGTTTTCCCGGTAATCCGTATTTGCT (site CCCTACACTAG)	1.16
CACTACACATGGACCGGTTTTCCCGGTAATCCGTATTTGCT (site CGCTACACTAG)	0.729
CACTACACATGGACCGGTTTTCCCGGTAATCCGTATTTGCT (site CTCTACACTAG)	1.79

Sequence	recombinant UMI read abundance (log10)
CACTCCCCATGGACCGGTTTTCCCGGTAATCCGTATTTGCC (site CACTCCACTGG)	0
CACTCCCCATGGACCGGTTTTCCCGGTAATCCGTATTTGCC (site CACTCCCCTGG)	1.23
CACTCCCCATGGACCGGTTTTCCCGGTAATCCGTATTTGCC (site CACTCCGCTGG)	0
CACTCCCCATGGACCGGTTTTCCCGGTAATCCGTATTTGCC (site CACTCCTCTGG)	1.43
CACTCCTCATGGACCGGTTTTCCCGGTAATCCGTATTTGCT (site CACTCCTCTAG)	3.09
CACTCCTCATGGACCGGTTTTCCCGGTAATCCGTATTTGCT (site CACTCCTCTCG)	0.583
CACTCCTCATGGACCGGTTTTCCCGGTAATCCGTATTTGCT (site CACTCCTCTGG)	2.08
CACTCCTCATGGACCGGTTTTCCCGGTAATCCGTATTTGCT (site CACTCCTCTTG)	1.69
CACTCCTCATGGACCGGTTTTCCCGGTAATCCGTATTTGTC (site CACTCCTCTGA)	3.16
CACTCCTCATGGACCGGTTTTCCCGGTAATCCGTATTTGTC (site CACTCCTCTGC)	1.7
CACTCCTCATGGACCGGTTTTCCCGGTAATCCGTATTTGTC (site CACTCCTCTGG)	2.55
CACTCCTCATGGACCGGTTTTCCCGGTAATCCGTATTTGTC (site CACTCCTCTGT)	3.06
CACTCGGCATGGACCGGTTTTCCCGGTAATCCGTATTTGAT (site CACTCGGCTAT)	2.18
CACTCGGCATGGACCGGTTTTCCCGGTAATCCGTATTTGTA (site CACTCGGCTTA)	2.18
CACTCTACATGGACCGGTTTTCCCGGTAATCCGTATTTGTA (site CACTCTACTTA)	0.722
CACTGATCATGGACCGGTTTTCCCGGTAATCCGTATTTGCT (site CACTGATCTAG)	2.61
CACTGATCATGGACCGGTTTTCCCGGTAATCCGTATTTGGG (site CACTGATCTCC)	1.27
CACTTCGCATGGACCGGTTTTCCCGGTAATCCGTATTTGGA (site CACTTAGCTTC)	0.0127
CACTTCGCATGGACCGGTTTTCCCGGTAATCCGTATTTGGA (site CACTTCGCTTC)	0.493

Sequence	recombinant UMI read abundance (log10)
CACTTCGCATGGACCGGTTTTCCCGGTAATCCGTATTTGGA (site CACTTGGCTTC)	0
CACTTCGCATGGACCGGTTTTCCCGGTAATCCGTATTTGGA (site CACTTTGCTTC)	0.00357
CACTTGGCATGGACCGGTTTTCCCGGTAATCCGTATTTGCA (site CACTTGGCTTA)	0.00954
CACTTGGCATGGACCGGTTTTCCCGGTAATCCGTATTTGCA (site CACTTGGCTTC)	0.0203
CACTTGGCATGGACCGGTTTTCCCGGTAATCCGTATTTGCA (site CACTTGGCTTG)	0.498
CACTTGGCATGGACCGGTTTTCCCGGTAATCCGTATTTGCA (site CACTTGGCTTT)	0.0216
CACTTGGCATGGACCGGTTTTCCCGGTAATCCGTATTTGCT (site CACTTGGCTAG)	0
CAGAACCCATGGACCGGTTTTCCCGGTAATCCGTATTTGAG (site CAGAACCCTCT)	1.35
CAGAAGACATGGACCGGTTTTCCCGGTAATCCGTATTTGCA (site AGGAAGACTTG)	0.401
CAGAAGACATGGACCGGTTTTCCCGGTAATCCGTATTTGCA (site CAGAAGACTTG)	3.09
CAGACGACATGGACCGGTTTTCCCGGTAATCCGTATTTGGG (site CAGACGACTCC)	0.00735
CAGACGACATGGACCGGTTTTCCCGGTAATCCGTATTTGGG (site CAGCCGACTCC)	0.0345
CAGACGACATGGACCGGTTTTCCCGGTAATCCGTATTTGGG (site CAGGCGACTCC)	0.0123
CAGACGACATGGACCGGTTTTCCCGGTAATCCGTATTTGGG (site CAGTCGACTCC)	0.0666
CAGATCCCATGGACCGGTTTTCCCGGTAATCCGTATTTGGT (site CAGATCCCTAC)	1.42
CAGCACGCATGGACCGGTTTTCCCGGTAATCCGTATTTGAT (site CAGCACGCTAT)	2.39
CAGCCGACATGGACCGGTTTTCCCGGTAATCCGTATTTGGG (site CAGACGACTCC)	0.0262
CAGCCGACATGGACCGGTTTTCCCGGTAATCCGTATTTGGG (site CAGCCGACTCC)	0.188
CAGCCGACATGGACCGGTTTTCCCGGTAATCCGTATTTGGG (site CAGGCGACTCC)	0.0119
